In article PMC7497692 (Investigational New Drugs, 2020):

Columns and labels:
[1] = Metabolite profiling and identification in plasma, urine and feces (part A); format: in vivo, human healthy male volunteers; details: male, human, in vivo; for half-life: apparent t½ of metabolite in plasma; for tmax: tmax of metabolite in plasma
Method: Participants were hospitalized from day 1 to day 16 of the study, and further assessed on days 19, 22, and 25 (trial end). […] Pre-dose feces and urine samples were collected on day 1 and day 2, respectively. Urine was collected at 4- to 12-h intervals on day 1 and every 24 h thereafter up to day 16. Feces were collected every 24 h up to day 16. Provision was made to collect further samples up to day 39 if >1% of the administered dose was detectable in the total (urine and feces) excreta per day on two consecutive measurements.
Metabolite profiling and structure elucidation in plasma, urine, and feces were performed at the Institute of Drug Metabolism and Pharmacokinetics, Merck KGaA, Grafing, Germany, using a radiometric UPLC method coupled to a high-resolution MS. For urine and feces, metabolites were identified in a single pooled sample per matrix and subject (urine pool of 4–120 h and feces pool of 0–192 h), that covered at least 90% of the total radioactivity of the respective matrix excreted. Intervals with low radioactivity were not used for the generation of the pooled samples to avoid dilution, and to increase the signal-to-noise ratio of the respective chromatograms.
The metabolite structure elucidation was performed using the linear trap quadrupole Orbitrap XL hybrid Fourier transform (FT) MS (Thermo Scientific, Dreieich, Germany) coupled to a Waters Acquity UPLC system. Full-scan FT spectra were acquired for measurement of the masses of molecular ions of parent and metabolites. MS^2 fragmentation spectra were acquired after high-energy collisional dissociation of the appropriate molecular ions. Allocation and confirmation of the proposed metabolites to the radioactive peaks were performed using an API4000 QTrap (AB Sciex, Darmstadt, Germany) MS with simultaneous splitting using a fraction collection system (CTC HTS PAL Fraction Collector, Axel Semrau, Sprockhövel, Germany), and offline radioactive measurement using a Topcount NXT® microplate scintillation counter (PerkinElmer, Rodgau, Germany).
The maximum plasma concentration (Cmax) and time to reach maximum concentration (tmax) were derived directly from the plasma concentration–time data. Lag time (tlag) was the time prior to the first measurable (non-zero) concentration. The area under the plasma concentration–time curve from 0 to t (last measurable concentration; AUC0–t) was calculated using a mixed log–linear trapezoidal method. Area under the plasma concentration–time curve until the last sampling time (AUCall), which corresponds to AUC0–240 h within the observation period, was used for metabolite calculations. Amounts excreted in urine, feces, and total (urine + feces) were calculated as the sum of amounts (concentration multiplied by volume) for each collection from time 0 to time t. The terminal rate constant (λz) was used to estimate the terminal half-life (t½) (ln 2/λz), and the area under the concentration–time curve from time 0 to infinity (AUC0–∞). Total body clearance (CL) and apparent body clearance (CL/f) were determined by dose/AUC0–∞, and total volume of distribution (Vz) and apparent volume of distribution (Vz/f) were calculated by dose/(AUC0–∞*λz) after IV and oral administration, respectively. Volume of distribution of the central compartment (Vc) was derived by dividing the dose by the initial drug plasma concentration after IV administration. Absolute bioavailability was calculated as F = (AUCoral/doseoral)/(AUCIV/doseIV) × 100. The ratios (%) AUCtepotinib or metabolite/AUCtotal radioactivity were calculated as a percentage of the molar AUCs.

[2] = Protein binding and blood cell affinity of M506; format: in vitro ADME

- half-life ([1]; median): 92 h
- half-life ([1]; range): 66 to 145 h
- % of AUCall of total 14C-radioactivity in plasma ([1]; po): 41%
- tmax ([1]; po, median): 24 h
- tmax ([1]; po, range): 24 to 60 h
- affinity for blood cells [2]: low affinity for blood cells
- protein binding [2]: highly protein-bound
Structure (SMILES): CN1CCC(COc2cnc(-c3cccc(Cn4nc(-c5cccc(C#N)c5)ccc4=O)c3)nc2)CC1=O (stereo not shown) [M506]
